# Like-named read-outs stand apart in the source and are kept apart here.
# Columns and labels:
# STS = target: T1, STS (Homo sapiens, UniProt P08842); details: cited from earlier work
# T1 sequence (P08842 22-583): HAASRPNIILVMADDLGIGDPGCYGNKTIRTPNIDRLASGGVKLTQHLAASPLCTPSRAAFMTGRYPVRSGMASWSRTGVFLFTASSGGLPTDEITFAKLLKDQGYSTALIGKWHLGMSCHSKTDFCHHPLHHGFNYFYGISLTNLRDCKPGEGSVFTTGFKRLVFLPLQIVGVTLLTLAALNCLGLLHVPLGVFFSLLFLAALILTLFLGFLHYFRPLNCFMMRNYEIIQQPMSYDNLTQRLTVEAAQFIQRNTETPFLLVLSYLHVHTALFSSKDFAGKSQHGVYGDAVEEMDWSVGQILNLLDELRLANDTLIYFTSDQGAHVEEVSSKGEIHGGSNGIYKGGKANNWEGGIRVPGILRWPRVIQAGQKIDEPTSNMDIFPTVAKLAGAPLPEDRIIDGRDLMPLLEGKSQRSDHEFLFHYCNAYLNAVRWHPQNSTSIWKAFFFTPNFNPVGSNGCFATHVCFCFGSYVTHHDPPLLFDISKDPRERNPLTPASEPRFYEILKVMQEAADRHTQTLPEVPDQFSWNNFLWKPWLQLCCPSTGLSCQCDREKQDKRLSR
# [1] = Pharmacokinetic model: accumulation of E2MATE+EMATE, Example 3; parameters: species or system human
# Method: As shown on FIG. 2, the accumulation ratio (Racc) based on the accumulation between two doses during one week time could be calculated. […] This could be achieved for example by the administration of 1 mg every 3 days or 2 mg per week (FIG. 2B).
# STS activity in PBMCs = target: T2, STS activity in PBMCs (Homo sapiens, UniProt P08842); experiment: STS activity in PBMCs, Example 2 (LC-MS/MS); type: in vivo; details: E2MATE 4 mg weekly and/or NETA 10 mg daily for 4 weeks
# T2 construct: Pharmacodynamic properties were investigated by assessment of the STS activity in PBMCs; endogenous in cells; host or cells: peripheral blood mononuclear cells (PBMCs) of dosed women
# T2 sequence (P08842 22-583): T1 sequence (P08842 22-583)
# Method: STS activity was determined by spiking specimens with labelled E1-S and by measuring its conversion to E1 per gram protein under standardized incubation conditions using LC-MS/MS. Protein concentration was evaluated with a validated colorimetric assay (Bradford method).
# [2] = tested on: endometriosis-like lesion; details: daily oral dose of 0.5 or 1 mg/kg for 21 days, cited from earlier work
# E2 and P4; T and D4A = experiment: Hormone profiles (E2, P4, T, D4A), Example 2; type: in vivo, human
# Method: Hormone profiles were determined as described in Example 1.
# [3] = target: T3, Steroid Sulfatase in PBMCs (Homo sapiens, UniProt P08842); experiment: STS activity in PBMCs, Example 1 (radio scintillation assay); type: in vivo; details: for Emax: read-out: Emax (%) maximal inhibition of Steroid Sulfatase in PBMCs, Mean (SD); for STS inhibition in PBMCs: single dose 4 mg E2MATE
# T3 construct: Pharmacodynamic properties were investigated by assessment of the STS activity in PBMCs; endogenous in cells; host or cells: peripheral blood mononuclear cells (PBMCs) of dosed women
# T3 sequence (P08842 22-583): T1 sequence (P08842 22-583)
# Method: (§1) Treatment was started within 72 hours after the beginning of menstrual bleeding.
# The active doses tested were 0.25 mg (1st cohort), 1 mg, 4 mg and 8 mg.
# The active doses tested were 0.25 mg, 1 mg and 4 mg.
# (§2) Ovarian and endometrium transvaginal ultrasounds throughout the study (Part A and B) and an endometrial biopsy (Part B only) were performed.
# Pharmacodynamic properties were investigated by assessment of the STS activity in PBMCs and by measurement of the serum hormonal profile comprising the ratio of E1-S to E1 and DHEA-S to DHEA. […] Hormone profiles were analysed using commercially available ELISA or RIA kits.
# [4] = Safety, tolerability and post-treatment menstruation cycles, Example 2
# From the text: Menstruation cycle length was not influenced by the treatment. […] Sizes of right and left ovary differed slightly for each subject, but no clinically relevant changes were identified by the gynaecologists.
# [5] = target: T4, STS activity in Peripheral Blood Mononuclear Cells (PBMCs) (Homo sapiens, UniProt P08842); experiment: STS inhibition in PBMCs, loading and maintenance phase, Example 4; type: in vivo; details: concomitant NETA 5 mg daily, patients
# T4 construct: Pharmacodynamic properties were investigated by assessment of the STS activity in PBMCs; endogenous in cells; host or cells: peripheral blood mononuclear cells (PBMCs) of dosed women
# T4 sequence (P08842 22-583): T1 sequence (P08842 22-583)
# From the text: The study is multicentre, randomised, two-arm, parallel group, double-blind, placebo controlled where eligible subjects were randomised on study day 1 in a 1:1 ratio into treatment group A or B between day 1 and day 4 of the menstrual bleeding.
# The baseline is established in terms of endometriosis profile regarding pelvic pain, dysmenorrhea, dyspaneuria and bleeding pattern and those parameters are followed during the treatment. During the loading phase the subjects are monitored on day 7, day 21 and on week 4 and during the maintenance phase monthly on week 8, week 12 and week 16.
# [6] = Safety, tolerability and ovarian cycle parameters, Example 1
# Method: as §1, §2
# [7] = target: T5, STS activity in the uterus or in induced lesions (Mus musculus, UniProt P50427); details: highest dose (1 mg/kg daily oral, 21 days); cited from earlier work
# T5 construct: host or cells: mouse uterus or induced endometriosis-like lesions
# T5 sequence (P50427 23-624): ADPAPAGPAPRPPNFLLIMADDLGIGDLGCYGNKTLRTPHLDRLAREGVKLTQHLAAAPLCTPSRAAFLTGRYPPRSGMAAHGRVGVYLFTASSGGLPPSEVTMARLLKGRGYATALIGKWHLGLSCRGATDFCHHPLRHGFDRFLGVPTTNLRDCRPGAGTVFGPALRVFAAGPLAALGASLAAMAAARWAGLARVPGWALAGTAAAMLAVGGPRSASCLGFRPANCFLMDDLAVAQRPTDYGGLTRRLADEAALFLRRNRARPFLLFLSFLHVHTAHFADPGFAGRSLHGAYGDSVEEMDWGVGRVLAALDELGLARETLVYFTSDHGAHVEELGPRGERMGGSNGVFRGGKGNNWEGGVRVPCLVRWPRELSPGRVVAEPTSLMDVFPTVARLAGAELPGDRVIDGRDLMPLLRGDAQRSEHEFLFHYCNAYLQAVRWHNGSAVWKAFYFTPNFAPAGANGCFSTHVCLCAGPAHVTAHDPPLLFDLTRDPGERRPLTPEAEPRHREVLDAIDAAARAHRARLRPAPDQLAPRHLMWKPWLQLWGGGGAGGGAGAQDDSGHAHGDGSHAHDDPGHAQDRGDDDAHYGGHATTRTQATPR
# [8] = multiple dose 0.25 mg E2MATE weekly for four weeks
# [9] = multiple dose 1 mg E2MATE weekly for four weeks
# [10] = multiple dose 4 mg E2MATE weekly for four weeks
structure (smiles),measurement,setting,value
"C[C@]12CC[C@@H]3c4ccc(OS(N)(=O)=O)cc4CC[C@H]3[C@@H]1CC[C@@H]2O [E2MATE, Estradiol-3-o-sulfamate]",STS inhibition,STS,active STS inhibitors
same,accumulation ratio (Racc) of E2MATE+EMATE,"[1]; Cmin 504 h versus Cmin 168 h, 4 mg/week during 4 weeks",about 2.7
same,E2MATE dose necessary to maintain the blood levels reached after the loading period,[1]; after loading 4 mg/week during 4 weeks,0.36 mg/day
same,mean percentage inhibition of STS activity in PBMCs,STS activity in PBMCs; Day 4,90%
same,percentage inhibition of STS activity in PBMCs,STS activity in PBMCs; Day 113,37%
same,average inhibition of STS activity in PBMCs,STS activity in PBMCs,82.6%
same,mean maximal inhibition of STS activity in PBMCs,STS activity in PBMCs,94.7%
same,lesion weight and size,[2]; end of treatment,decreased
same,histology of the uterus (indicative of some estrogenic activity),[2],some stromal oedema was observed
same,number of lesions,[2],without a reduction
same,mean concentration-time profiles in E2 and P4,"E2 and P4; T and D4A; first cycle up to Day 29, normal increase on Day 43",Normal mean concentration-time profiles
same,mean concentration-time profiles for T and D4A,E2 and P4; T and D4A; multiple dose administration,No relevant differences
same,"AVG (%) average inhibition of Steroid Sulfatase in PBMCs, Mean (SD)",[3]; [8],22.7 (16.5) %
same,Emax,[3]; [8],42%
same,"AVG (%) average inhibition of Steroid Sulfatase in PBMCs, Mean (SD)",[3]; [9],43.5 (23.2) %
same,Emax,[3]; [9],79.5%
same,"AVG (%) average inhibition of Steroid Sulfatase in PBMCs, Mean (SD)",[3]; [10],88.4 (9.5) %
same,Emax,[3]; [10],100%
same,Emax,"[3]; po, single oral dose 0.25 mg E2MATE",59.5%
same,Emax,"[3]; po, single oral dose 1 mg E2MATE",58.7%
same,Emax,"[3]; po, single oral dose 4 mg E2MATE",99.5%
same,STS inhibition in PBMCs,[3]; Day 0 of cycle 2 (approximately 56 days after dosing),82%
same,STS inhibition in PBMCs,[3]; Day 3,96%
same,"AVG (%) average inhibition of Steroid Sulfatase in PBMCs, Mean (SD)","[3]; single oral dose 0.25 mg E2MATE, Day 1 until EOS",23.2 (14.6) %
same,"AVG (%) average inhibition of Steroid Sulfatase in PBMCs, Mean (SD)","[3]; single oral dose 1 mg E2MATE, Day 1 until EOS",25.2 (10.6) %
same,ovarian size,[4]; in vivo,no apparent effect
same,tolerability,"[4]; multiple doses for 4 weeks, healthy pre-menopausal female subjects",well tolerated
same,STS inhibition in PBMCs after the loading phase,"[5]; Day 28, 16 mg over 4 weeks",almost complete
same,STS inhibition in PBMCs at maintenance dose,"[5]; Day 56, 2 mg/week",almost entire
same,cycle length,[6]; in vivo,not affected
same,"endometrial thickness assessed by TVUS, between treatment groups",[6]; in vivo,no clinically relevant differences
same,number of measurable follicles / subjects with follicles >10 mm,[6]; in vivo,No clinically relevant effects
same,tolerability,"[6]; multiple doses of 0.25, 1 mg and 4 mg weekly x4",well tolerated
same,tolerability,"[6]; single doses of 0.25 mg, 1 mg, 4 mg and 8 mg",well tolerated
same,STS activity inhibition in the uterus or in induced lesions,[7],≤ 36%

# Source: US20150065470A1, “Steroid Sulfatase Inhibitor Regimen for the Treatment of Endometriosis” (priority 2012, published 2015)
